Data published in patent US9045450B2, “Method for chemical synthesis of antrocin and use thereof for suppressing non-small cell lung cancer” (KAIYEW INVESTMENT CORP., priority 2011, dated 2015).
Entries after “also recorded” stand apart in the source; their conditions may differ.

How the values were obtained:
[1] = system: human non-small cell lung cancer cells (CL1-0, CL1-5, H1975, H441, PC9, A549); assay: Cytotoxicity / cell proliferation, sulforhodamine B; format: cell-based; conditions: NSCLC cell lines, antrocin 0.5-10 μM, two days, FIG. 4 (A)
Procedure: (§1) Human lung cancer cell lines (CL1-0, CL1-5, H1975, H441, PC9, A549) and human bronchial epithelia cell lines (BEAS-2B) were obtained from the Institute of Clinical Medicine, Taipei Medical University. The cells were grown and maintained in DMEM medium (Dulbecco's Modified Eagle's Medium and RPMI basal medium supplemented with 10% fetal bovine serum, 2 mM glutamine, […] streptomycin, and 100 U/ml penicillin in a wet incubator at 5% CO2.
(§2) Lung cancer cell were grown in a medium supplemented with 10% fetal bovine serum until the cells grew to approximately 80% of their full-blown size. Old culture solution was drained, the lung cancer cells were washed with PBS buffer solution (phosphate buffered saline), and 10 ml of serum-free culture medium was added. Different pharmaceutical drugs were added according to experimental purposes, all reactions were carried out in an incubator at 37° C.
(§3) Human lung cancer cells (CL1-0, CL1-5, H1975, H441, PC9, A549) and human bronchial epithelial cells (BEAS-2B) were seeded in 96-well culture plates (2000 cells/well) and incubated overnight in 100 μl complete DMEM. […] After two days, total number of human cells in each well was measured using sulforhodamine B (a fluorescent protein dye). […] The optical density was measured at 562 nm by a microtiter plate detector. […]

H1975 cells [2] = assay: as above; format: cell-based, human; conditions: H1975, antrocin 0.5-10 μM, two days, FIG. 4 (A)
Procedure: as §1, §2, §3

H441 cells = assay: as above; format: cell-based, human; conditions: H441, antrocin 0.5-10 μM, two days, FIG. 4 (A)
Procedure: as §1, §2, §3

[3] = system: normal human bronchial epithelial cells (BEAS-2B); assay: Cytotoxicity, sulforhodamine B; format: cell-based; conditions: antrocin 0.5-10 μM, two days, FIG. 4 (A)
Procedure: as §1
Human lung cancer cells (CL1-0, CL1-5, H1975, H441, PC9, A549) and human bronchial epithelial cells (BEAS-2B) were seeded in 96-well culture plates (2000 cells/well) and incubated overnight in 100 μl complete DMEM. Equal amount of complete DMEM sample containing 50 μl antrocin (0.5-10 μM) was placed in other wells of the culture plates. Further, 100 μl complete DMEM sample was also placed in wells as the control group. After two days, total number of human cells in each well was measured using sulforhodamine B (a fluorescent protein dye). Briefly, human cells were fixed in 10% trichloroacetic acid and stained with 0.4% sulforhodamine B. After being stained for 20 minutes, the human cells were washed with 1% acetic acid, and then sulforhodamine B, which was bound with human cells, was dissolved in 10 mM tris base. The optical density was measured at 562 nm by a microtiter plate detector. […]

H1975 cells [4] = assay: Apoptosis, flow cytometry; format: cell-based, human; conditions: H1975, antrocin treatment for 48 hours, FIG. 4 (B)
XIAP = assay: Protein expression in H441 cells (FIG. 6); format: cell-based, human
Excerpt: (§4) The inhibitory effect of antrocin on protein expression is presented as relative multiple.Beta-actin protein was the internal reference (loading control).

caspase-3 enzyme = assay: Protein expression in H441 cells (FIG. 6); format: cell-based, human; conditions: increasing dose
Excerpt: as §4

cyclin D1 = assay: Protein expression in H441 cells (FIG. 6); format: cell-based, human
Excerpt: as §4

[5] = Body weight of tumor-bearing mice; format: in vivo, non-obese diabetic/severe combined immunodeficient mice; conditions: 5 and 10 mg/kg/day intraperitoneal, four weeks, FIG. 7 (C)
Procedure: […] cells (6×10^5/100 μl PBS) were intravenously injected into immunodeficient mice via lateral tail vein. Antrocin treatments (low dose of 5 mg/kg/day and high dose of 10 mg/kg/day) were performed by daily intraperitoneal injection into tumor-bearing mice over a period of four weeks. Weekly observations were performed and data were recorded for (A) VIS images, (B) Tumor growth, (C) Body weights, and (D) Survival curves.
The present invention further investigated anticancer effect of antrocin in vivo. H441-L2G cells expressing firefly luciferase and green fluorescent protein were implanted by intravenous injections via the lateral tail vein (6×10^5/100 μl PBS) into non-obese diabetic/severe combined immunodeficient mice. Daily intraperitoneal injections of antrocin (two groups of mice, a low dose of 5 mg/kg/day and a high dose of 10 mg/kg/day) were given over a period of four weeks to observe tumor growth.
The present invention further investigated the anticancer effect of antrocin in vivo. H441-L2G cells expressing firefly luciferase and green fluorescent protein were implanted by intravenous injections via the lateral tail vein (6×10^5/100 μl PBS) into non-obese diabetic/severe combined immunodeficiency mice. […]

breast cancer cells = conditions: natural antrocin isolated from Antrodia; Rao et al., 2011; cited from earlier work

C=C1CC[C@H]2C(C)(C)CCC[C@@]23C(=O)OC[C@@H]13 [antrocin]
inhibitory effect on cancer cell proliferation [1]: significant inhibitory effect
inhibition of cancer cell growth/proliferation (H1975 cells [2]): most robust inhibitions
inhibition of cancer cell growth/proliferation (H441 cells): most robust inhibitions
cytotoxicity against normal human bronchial epithelial cells [3]: no cytotoxicity
number of cells in early and late (final) stage of apoptosis (H1975 cells [4]): increase in the number of cells in early and late stage of apoptosis in a dose-dependent fashion; also recorded: increased significantly in a dose-dependent fashion
inhibition of XIAP protein expression (XIAP): dose-dependently inhibited
activation of caspase enzyme 3 (caspase-3 enzyme): markedly activated
inhibition of cyclin D1 protein expression (cyclin D1): dose-dependently inhibited
body weight, treated group vs control group [5]: no significant difference
inhibition of cell proliferation in breast cancer cells (breast cancer cells): inhibited the cell proliferation; also recorded: effectively inhibited cell proliferation
